{
  "source": "ChEMBL document CHEMBL5537136",
  "about": "(J Med Chem, 2024)",
  "key": {"[1]": {"biological_target": "T1, Poly [ADP-ribose] polymerase tankyrase-1 (Homo sapiens, UniProt O95271)", "T1 sequence (O95271 whole entry)": "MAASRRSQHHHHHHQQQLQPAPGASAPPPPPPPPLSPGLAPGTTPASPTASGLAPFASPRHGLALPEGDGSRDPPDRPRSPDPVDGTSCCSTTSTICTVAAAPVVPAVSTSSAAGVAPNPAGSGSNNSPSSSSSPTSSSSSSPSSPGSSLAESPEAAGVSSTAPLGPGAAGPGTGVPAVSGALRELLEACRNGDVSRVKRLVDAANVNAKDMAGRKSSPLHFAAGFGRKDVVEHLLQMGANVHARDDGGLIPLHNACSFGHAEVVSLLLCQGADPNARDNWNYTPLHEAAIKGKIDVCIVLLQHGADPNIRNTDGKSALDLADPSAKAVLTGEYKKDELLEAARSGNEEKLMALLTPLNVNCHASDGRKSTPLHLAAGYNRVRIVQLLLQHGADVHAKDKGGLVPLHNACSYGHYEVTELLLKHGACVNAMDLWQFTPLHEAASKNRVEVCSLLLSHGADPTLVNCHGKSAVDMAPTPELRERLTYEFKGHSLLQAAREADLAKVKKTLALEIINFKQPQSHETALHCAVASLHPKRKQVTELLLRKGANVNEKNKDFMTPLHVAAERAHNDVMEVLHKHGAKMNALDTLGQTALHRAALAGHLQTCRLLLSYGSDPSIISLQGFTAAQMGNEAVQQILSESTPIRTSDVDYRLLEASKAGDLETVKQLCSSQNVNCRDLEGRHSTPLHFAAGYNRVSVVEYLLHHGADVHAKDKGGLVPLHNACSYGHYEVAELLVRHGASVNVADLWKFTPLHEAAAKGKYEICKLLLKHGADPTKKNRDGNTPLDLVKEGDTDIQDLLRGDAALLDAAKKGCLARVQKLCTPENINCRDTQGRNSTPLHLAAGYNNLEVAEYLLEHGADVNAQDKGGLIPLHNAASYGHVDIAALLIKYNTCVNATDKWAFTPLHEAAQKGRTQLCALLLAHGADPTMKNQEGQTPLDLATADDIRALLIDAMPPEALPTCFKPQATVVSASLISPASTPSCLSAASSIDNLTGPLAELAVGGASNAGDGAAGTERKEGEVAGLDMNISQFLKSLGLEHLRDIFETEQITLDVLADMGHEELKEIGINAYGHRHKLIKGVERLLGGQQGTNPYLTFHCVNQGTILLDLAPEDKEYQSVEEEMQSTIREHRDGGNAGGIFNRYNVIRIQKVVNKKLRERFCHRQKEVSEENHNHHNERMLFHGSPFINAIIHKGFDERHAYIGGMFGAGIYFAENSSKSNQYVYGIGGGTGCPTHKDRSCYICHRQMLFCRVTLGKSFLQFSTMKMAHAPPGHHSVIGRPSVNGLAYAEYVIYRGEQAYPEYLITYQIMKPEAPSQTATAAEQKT", "assay": "Inhibition of TNKS1 (unknown origin) measured after 1 hr incubation by microplate reader assay"}, "[2]": {"biological_target": "T2, Protein mono-ADP-ribosyltransferase PARP10 (Homo sapiens, UniProt Q53GL7)", "T2 sequence (Q53GL7 whole entry)": "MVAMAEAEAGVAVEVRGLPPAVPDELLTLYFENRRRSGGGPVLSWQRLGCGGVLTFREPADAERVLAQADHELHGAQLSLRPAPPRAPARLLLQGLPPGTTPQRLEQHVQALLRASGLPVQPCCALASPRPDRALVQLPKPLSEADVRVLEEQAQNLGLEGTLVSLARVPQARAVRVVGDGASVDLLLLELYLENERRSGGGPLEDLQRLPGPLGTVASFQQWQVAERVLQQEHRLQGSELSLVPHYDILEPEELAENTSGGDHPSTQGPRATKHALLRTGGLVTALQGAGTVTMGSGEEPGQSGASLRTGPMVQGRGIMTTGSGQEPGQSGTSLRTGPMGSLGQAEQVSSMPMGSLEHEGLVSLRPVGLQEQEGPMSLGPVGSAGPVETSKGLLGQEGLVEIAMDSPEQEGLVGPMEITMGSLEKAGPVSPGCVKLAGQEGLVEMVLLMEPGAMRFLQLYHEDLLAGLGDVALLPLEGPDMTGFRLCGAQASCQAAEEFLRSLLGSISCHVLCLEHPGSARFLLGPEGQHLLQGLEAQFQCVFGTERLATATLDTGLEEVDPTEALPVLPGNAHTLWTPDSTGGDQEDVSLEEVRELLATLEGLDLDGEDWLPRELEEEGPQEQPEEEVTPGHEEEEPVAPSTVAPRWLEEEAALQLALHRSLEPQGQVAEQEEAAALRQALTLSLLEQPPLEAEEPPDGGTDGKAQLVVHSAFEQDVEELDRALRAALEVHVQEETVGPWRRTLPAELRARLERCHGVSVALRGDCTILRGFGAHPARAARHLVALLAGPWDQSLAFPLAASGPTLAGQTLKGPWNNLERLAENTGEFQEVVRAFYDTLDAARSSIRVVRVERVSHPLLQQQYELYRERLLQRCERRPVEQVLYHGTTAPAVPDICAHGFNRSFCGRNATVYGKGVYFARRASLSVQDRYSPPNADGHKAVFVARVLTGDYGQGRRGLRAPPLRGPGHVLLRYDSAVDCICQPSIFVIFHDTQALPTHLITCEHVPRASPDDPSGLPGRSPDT", "assay": "Inhibition of PARP10 (unknown origin) measured after 1 hr incubation by microplate reader assay"}, "[3]": {"system": "CT26", "assay": "Induction of anti-tumor immunity in mouse CT26 cells assessed as increase in CXCL10 mRNA expression incubated for 2 days by quantitative real-time PCR analysis", "format": "functional, cell-based", "settings": "dose 0.04-0.44 µM, time 2.0 day"}, "[4]": {"biological_target": "Cytochrome P450 2D6 (Homo sapiens, UniProt P10635)", "sequence (P10635 whole entry)": "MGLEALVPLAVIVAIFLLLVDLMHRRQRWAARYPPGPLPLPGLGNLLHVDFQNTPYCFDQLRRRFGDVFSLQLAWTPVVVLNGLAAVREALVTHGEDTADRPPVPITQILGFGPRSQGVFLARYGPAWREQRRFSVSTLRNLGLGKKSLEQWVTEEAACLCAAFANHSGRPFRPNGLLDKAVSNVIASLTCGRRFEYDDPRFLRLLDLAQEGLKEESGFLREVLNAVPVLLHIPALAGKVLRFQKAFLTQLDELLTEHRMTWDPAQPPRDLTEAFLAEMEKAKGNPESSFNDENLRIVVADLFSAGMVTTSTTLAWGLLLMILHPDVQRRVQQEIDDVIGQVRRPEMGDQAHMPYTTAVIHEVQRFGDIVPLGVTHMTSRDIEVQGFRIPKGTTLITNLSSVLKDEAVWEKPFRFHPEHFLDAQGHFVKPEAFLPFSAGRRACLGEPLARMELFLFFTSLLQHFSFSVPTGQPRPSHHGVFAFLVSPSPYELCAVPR", "assay": "Inhibition of CYP2D6 (unknown origin)", "format": "ADME"}, "[5]": {"assay": "AUC (0 to infinity) in ICR mouse at 1 mg/kg, iv measured upto 24 hrs by LC-MS/MS analysis", "format": "ADME, organism-based", "settings": "in vivo"}, "[6]": {"assay": "Apparent volume of distribution in ICR mouse at 1 mg/kg, iv measured upto 24 hrs by LC-MS/MS analysis", "format": "ADME, organism-based", "settings": "in vivo, read-out: Vz"}, "[7]": {"assay": "AUC (0 to infinity) in ICR mouse at 10 mg/kg, IG measured upto 24 hrs by LC-MS/MS analysis", "format": "ADME, organism-based", "settings": "in vivo, po"}, "[8]": {"assay": "Toxicity in Balb/c mouse bearing mouse CT26 cells assessed as morphological changes in lung at 6.25 to 25 mg/kg, IG measured after 14 days by hematoxylin and eosin staining based assay", "format": "organism-based", "settings": "in vivo, po, 336 h, dose 6.25-25 mg/kg, time 14 day"}, "[9]": {"system": "CT26", "assay": "Antitumor activity in immunocompetent Balb/c mouse CT26 cell bearing mouse model assessed as change in tumor cell morphology at 6.25 to 25 mg/kg, IG treated twice a day measured after 14 days by hematoxylin and eosin staining based assay", "format": "functional, organism-based", "settings": "dose lower 6.25 mg/kg, dose upper […], time 14.0 day"}, "[10]": {"system": "CT26", "assay": "Antitumor activity against mouse CT26 cells implanted in immunodeficient Balb/c mouse assessed as inhibition of tumor growth at 25 mg/kg, IG twice daily measured after 10 days relative to control", "format": "functional", "settings": "CT26, po, 240 h, time 10 day, read-out: TGI"}},
  "note": "Calls of active or inactive are those of the source. The calls are words filed in the database; no cut-off is given here.",
  "data": [
    {"molecule": "C[C@@H](C(=O)N1CCN(c2ncc(C(F)(F)F)cn2)CC1)n1cc2cccc(C(N)=O)c2n1", "values": [
      {"measurement": "IC50", "setting": "[1]", "value": 901, "unit": "nM"},
      {"measurement": "IC50", "setting": "[2]", "value": 377, "unit": "nM"},
      {"measurement": "Activity", "setting": "[3]", "value": "Dose-Dependent Effect"},
      {"measurement": "IC50", "setting": "[4]", "value": "> 30000", "unit": "nM"},
      {"measurement": "AUC(0-inf)", "setting": "[5]", "value": 1800, "unit": "ng·h/mL"},
      {"measurement": "Vd", "setting": "[6]", "value": 0.978, "unit": "L/kg"},
      {"measurement": "AUC(0-inf)", "setting": "[7]", "value": 17000, "unit": "ng·h/mL"},
      {"measurement": "Activity", "setting": "[8]", "value": "Non-Toxic"},
      {"measurement": "Activity", "setting": "[9]", "value": "Active"},
      {"measurement": "inhibition in vivo at 25 mg/kg", "setting": "[10]", "value": 4, "unit": "%"}
    ]}
  ]
}
